From patent EP4678639A1, “SALT OF BENZIMIDAZOLE DERIVATIVE” (JW Pharmaceutical Corporation, priority 2023, dated 2024)
Counter-ions that a name gives are not always drawn.

What was measured:
[1] = water
Method: (§1) The measurement was conducted according to the method described under "Solubility" in the General Notices of Appendix 1 of the 12th Edition of the Korean Pharmacopoeia. Each solubility was expressed by measuring the solubility of the acid addition salt itself, without conversion to the tegoprazan freebase.

[2] = Solid-state stress stability test (humidity 90 % RH); details: for Initial (%) Degradant / Initial (%) Total Related substances: Table 9, initial
Method: The analysis conditions are as follows.
(§2) Operation and Calculation: The blank solution, standard solution, and test solution were sequentially tested under the instrument operating conditions according to the liquid chromatography method in the General Test Methods of the 12th Edition of the Korean Pharmacopoeia, and the amount of related substances was calculated using the following equation. Amount of each related; substance (%) = (AT)/(AS) × (CS)/(CT) × (Molecular weight; of the sample)/(Molecular weight; of the standard; product) × P × (1)/(RR; F) [formula] AT = Area of each related substance peak obtained from the test solution AS = Area of the tegoprazan peak obtained from the standard solution CS = Concentration of standard solution (mg/mL) CT = Concentration of test solution (mg/mL) P = Purity/Assay/Potency (%) of standard product RRF = Relative response factor (1.0)
(§3) A solid-state stability comparative test was conducted on each of the above-mentioned prepared tegoprazan acid addition salts. The stability comparative test was conducted for 1 month under the conditions shown in Table 6 below in accordance with The International Council for Harmonisation of Technical Requirements for Pharmaceuticals for Human Use (ICH) guideline, and the purity of the acid addition salt, total related substances, and the content of degradants were measured by HPLC at the initial time point and after 1 month. Total related substances and degradants were measured according to the related substance test method (HPLC).
3) Stress Stability (humidity 90 % RH)

[3] = Solid-state stress stability test (temperature 60 °C); details: for Change (%) Degradant: 1 month vs initial; for Initial (%) Degradant / Initial (%) Total Related substances: Table 8, initial
Method: The analysis conditions are as follows.
as §2, §3
2) Stress Stability Test (temperature 60 °C)

[4] = Photostability test, visible light (1.2 Mlux·hr) exposure; details: for Change (%) Degradant: Table 11, after exposure vs initial; for Initial (%) Degradant / Initial (%) Total Related substances: Table 11, initial; for After (%) Degradant / After (%) Total Related substances: Table 11 under heading Visible Light (1.2 Mlux-hr) Exposure Test
Method: A photostability comparative test was conducted on each of the above-mentioned prepared tegoprazan acid addition salts. The test was conducted by exposing the sample to light with an energy of 200 W hr/m^2 of ultraviolet light and 1.2 Mlux hr of visible light in accordance with The International Council for Harmonisation of Technical Requirements for Pharmaceuticals for Human Use (ICH) guideline, with the samples packaged in a single PE bag and spread thinly enough to ensure exposure to the light source, taking humidity stability into consideration. The purity of the acid addition salts and the change in the amount of degradants at the initial time point and after exposure to ultraviolet light or visible light were measured by HPLC.

[5] = Photostability test, ultraviolet light (200 W·hr/m2) exposure; details: for After Ultraviolet Light Exposure (200 W hr/m2)(%) Degradant / After Ultraviolet Light Exposure (200 W hr/m2)(%) Total Related substances: Table 10, UV 200 W·hr/m2, PE bag; for Change (%) Degradant: Table 10, after UV exposure vs initial; for Initial (%) Degradant / Initial (%) Total Related substances: Table 10, initial
[6] = Solid-state accelerated stability test (40 ± 2 °C/RH 75 ± 5 %); details: for After 1 Month (%) Degradant / After 1 Month (%) Total Related substances / Change (%) Degradant: 40 ± 2 °C / RH 75 ± 5 %; for Change (%) Degradant: 1 month vs initial; for Initial (%) Total Related substances / Initial (%) Degradant: Table 7, initial; for Initial (%) Degradant: degradant of Formula 4
Method: The analysis conditions are as follows.
as §2, §3

[7] = Raw material stability test versus tegoprazan freebase (60 °C or 90 % RH); type: physicochemical
[8] = in vivo; cited from earlier work
[9] = Solubility comparative test (Korean Pharmacopoeia 'Solubility'); details: solubility of the acid addition salt itself, without conversion to freebase
Method: as §1

Row | SMILES | solubility / aqueous solubility [1] [µg/mL] | Initial (%) Degradant [2] [%] | Initial (%) Total Related substances [2] [%] | After 1 Month (%) Degradant ([3]; 60 °C) [%] | After 1 Month (%) Total Related substances ([3]; 60 °C) [%] | Change (%) Degradant ([3]; 60 °C) [%] | Initial (%) Degradant [3] [%] | Initial (%) Total Related substances [3] [%] | Change (%) Degradant [4] [%] | Initial (%) Degradant [4] [%] | Initial (%) Total Related substances [4] [%] | After (%) Degradant [4] [%] | After (%) Total Related substances [4] [%] | After Ultraviolet Light Exposure (200 W hr/m2)(%) Degradant [5] [%] | After Ultraviolet Light Exposure (200 W hr/m2)(%) Total Related substances [5] [%] | Change (%) Degradant [5] [%] | Initial (%) Degradant [5] [%] | Initial (%) Total Related substances [5] [%] | After 1 Month (%) Degradant [6] [%] | After 1 Month (%) Total Related substances [6] [%] | other results
1 | Cc1nc2c(O[C@H]3CCOc4cc(F)cc(F)c43)cc(C(=O)N(C)C)cc2[nH]1 [Hemisalicylate Salt] | ≤ 1000 | 0.001 | 0.208 | 0.039 | 0.268 | 0.038 | 0.001 | 0.208 | 0.244 | 0.001 | 0.208 | 0.245 | 1.021 | 0.360 | 1.360 | 0.359 | 0.001 | 0.208 | 0.004 | 0.208 | After 1 Month (%) Total Related substances ([2]; 90 % RH, 1 month): 1.759%; Remarks ([4]; Table 11, after exposure, appearance): Discolorat ion; changes in appearance ([4]; visible light exposure): changes in appearance; Remarks ([5]; Table 10, after UV exposure, appearance): Discolorat ion; changes in appearance ([5]; ultraviolet light exposure): changes in appearance; Change (%) Degradant [6]: 0.003%; Initial (%) Total Related substances [6]: 0.208%; Initial (%) Degradant [6]: 0.001%; purity change after 1 month ([6]; accelerated stability): ≤ 0.1%
2 | Cc1nc2cc(C(=O)N(C)C)cc(O[C@H]3CCOc4cc(F)cc(F)c43)c2[nH]1 [Tegoprazan Freebase Crystalline Form A] |  |  |  |  |  |  |  |  |  |  |  |  |  |  |  |  |  |  |  |  | change in appearance, 60 °C ([7]; 60 °C, 3 weeks): No change in appearance; change in appearance, 90 % RH ([7]; 90 % RH, 3 weeks): No change in appearance; change in appearance, Initial ([7]; initial): No change in appearance; Tmax delayed when administered after a meal compared to before a meal [8]: up to 8 hours; Solubility [9]: < 1000 µg/mL
3 | Cc1nc2c(O[C@H]3CCOc4cc(F)cc(F)c43)cc(C(=O)N(C)C)cc2[nH]1 [Maleate Salt] | ≤ 1000 | 0.027 | 0.357 | 1.248 | 6.070 | 1.221 | 0.027 | 0.357 | 0.006 | 0.027 | 0.357 | 0.033 | 0.508 | 0.032 | 0.354 | 0.005 | 0.027 | 0.357 | 0.083 | 0.679 | absorb moisture and deliquesce / melted ([2]; 90 % RH): absorb moisture and deliquesce; Remarks ([2]; 90 % RH, 1 month, state of the solid): Melted; total related substances increased after 1 month ([3]; 60 °C): ≥ 5.0%; Change (%) Degradant [6]: 0.056%; Initial (%) Total Related substances [6]: 0.357%; Initial (%) Degradant [6]: 0.027%; increase in total related substances after 1 month ([6]; accelerated stability): ≥ 0.3%
